*1 amine or outer side, *2 acyl side, *3 side chain or, on linkers, in order; H or OH if unused. Where a SMILES comes first, the peptide text is derived from it. Where no end group is shown, it is not given here. [ ]: non-standard residue; d: D form. The star is where a group is joined. sY = N[C@@H](Cc1ccc(OS(=O)(=O)O)cc1)C(=O)O; X2 = CC(C)C[C@H](N*)C(=O)NP(=O)(O)O; Asu = N[C@@H](CCCCCC(=O)O)C(=O)O; dAsu = N[C@H](CCCCCC(=O)O)C(=O)O; NH(3-hydroxypropyl) = OCCCN*; Suc = O=C(CCC(=O)[*:2])[*:1]; X1 = NS(=O)(=O)CCN*
Molecular target: thrombin (Homo sapiens, UniProt P00734)
Experiment: anti-thrombin activity; clotting assay (coagulation time with fibrinogen as substrate)
Assay type: biochemical
Parameters: 100 μl of human-thrombin prepared at 10 NIH units/ml in aforesaid buffer
Conditions: for Potency: calculated using the definition that HV-1 (54-65) potency is 1; for IC50: concentration corresponding to 50 thrombin units, human-thrombin 10 NIH units/ml, human-fibrinogen 6 mg/ml, read-out: 50% Inhibition Concentration (converted)
Method: Measurement of anti-thrombin activity was done by looking at anti-coagulant activity as an index using fibrinogen as the substrate. That is, the compounds were dossolved in 200 μl of 0.1 mM Tris-HCl buffer (pH7.5) containing 0.1% polyethyleneglycol-6000, 100 μl of human-thrombin prepared at 10 NIH units/ml in aforesaid buffer, were added 200 μl of human-fibrinogen (Sigma) prepared at 6 mg/ml in aforesaid tris-hydrochloride buffer were added, and the coagulation time of the reaction mixtures were measured. For measuring of coagulation times, coagulation time analyzer (Amelung KC10A) was used. Obtained values were converted into units by using a previously prepared thrombin standard curve. Graphs were prepared by plotting the converted values on the vertical axis, and the concentrations of the compounds on the horizontal axis. In the graphs, the thrombin unit was defined as 100 at a compound concentration of 0. The concentration of compounds corresponding to 50 units were defined as 50% inhibitory concentrations of compounds.

Row | Molecule | Potency | IC50 [µM]
1 | CC[C@H](C)[C@H](NC(=O)[C@@H]1CCCN1C(=O)[C@H](CCC(=O)O)NC(=O)[C@H](Cc1ccccc1)NC(=O)CCC(=O)O)C(=O)N1CCC[C@H]1C(=O)N[C@@H](CCC(=O)O)C(=O)N[C@@H](Cc1ccc(O)cc1)C(=O)N[C@@H](Cc1ccc(O)cc1)C(N)=O [(J)] (Suc-FEPIPEYY-NH2) | 0.07 | 85.1
2 | CC[C@H](C)[C@H](NC(=O)[C@@H]1CCCN1C(=O)[C@H](CCC(=O)O)NC(=O)[C@H](Cc1ccccc1)NC(=O)CCC(=O)O)C(=O)N1CCC[C@H]1C(=O)N[C@@H](CCC(=O)O)C(=O)N[C@@H](Cc1ccc(OS(=O)(=O)O)cc1)C(=O)N[C@@H](Cc1ccc(OS(=O)(=O)O)cc1)C(=O)O [Sulfated form of (I), Suc--Phe--Glu--Pro--Ile--Pro--Glu--Tyr(SO3 H)--Tyr(SO3 H)--OH] (Suc-FEPIPE[sY][sY]-OH) | 1.62 | 3.1
3 | CC[C@H](C)[C@H](NC(=O)[C@@H]1CCCN1C(=O)[C@H](CCC(=O)O)NC(=O)[C@H](Cc1ccccc1)NC(=O)CCC(=O)O)C(=O)N1CCC[C@H]1C(=O)N[C@@H](CCC(=O)O)C(=O)N[C@@H](Cc1ccc(O)cc1)C(=O)N[C@@H](Cc1ccc(O)cc1)C(=O)N[C@@H](CC(C)C)C(=O)N[C@@H](CCCCCC(=O)OC)C(=O)OC [(V)] (Suc-FEPIPEYYL[Asu](OMe)-OMe) | – | 20.7
4 | CC[C@H](C)[C@H](NC(=O)[C@H](CCC(=O)O)NC(=O)[C@H](CCC(=O)O)NC(=O)[C@H](Cc1ccccc1)NC(=O)[C@H](CC(=O)O)NC(=O)CN)C(=O)N1CCC[C@H]1C(=O)N[C@@H](Cc1ccc(O)cc1)C(=O)N[C@@H](Cc1ccc(O)cc1)C(=O)N[C@@H](Cc1ccc(OS(=O)(=O)O)cc1)C(=O)N[C@@H](CC(C)C)C(=O)N[C@@H](CCC(N)=O)C(=O)O (single isomer, unassigned) [Sulfated form of (B) peak 3, Gly--Asp--Phe--Glu--Glu--Ile--Pro--Tyr--Tyr--Tyr(SO3 H)--Leu--Gln] | – | 2.49
5 | CC[C@H](C)[C@H](NC(=O)[C@@H]1CCCN1C(=O)[C@H](CCC(=O)O)NC(=O)[C@H](Cc1ccccc1)NC(=O)[C@H](CC(=O)O)NC(=O)CCC(=O)O)C(=O)N1CCC[C@H]1C(=O)N[C@@H](CCC(=O)O)C(=O)N[C@@H](Cc1ccc(OS(=O)(=O)O)cc1)C(=O)N[C@@H](Cc1ccc(OS(=O)(=O)O)cc1)C(=O)N[C@@H](CC(C)C)C(=O)N[C@@H](CCC(N)=O)C(=O)O [Sulfated form of (F), Suc--Asp--Phe--Glu--Pro--Ile--Pro--Glu--Tyr(SO3 H)--Tyr(SO3 H)--Leu--Gln--OH] (Suc-DFEPIPE[sY][sY]LQ-OH) | 1.32 | 3
6 | CC[C@H](C)[C@H](NC(=O)[C@@H]1CCCN1C(=O)[C@H](CCC(=O)O)NC(=O)[C@H](Cc1ccccc1)NC(=O)CCC(=O)O)C(=O)N1CCC[C@H]1C(=O)N[C@@H](CCC(=O)O)C(=O)N[C@@H](Cc1ccc(O)cc1)C(=O)N[C@@H](Cc1ccc(O)cc1)C(=O)NCCCO [(N)] (Suc-FEPIPEYY-{NH(3-hydroxypropyl)}) | – | 84.9
7 | CC[C@H](C)[C@H](NC(=O)[C@@H]1CCCN1C(=O)[C@H](CCC(=O)O)NC(=O)[C@H](Cc1ccccc1)NC(=O)CCC(=O)O)C(=O)N1CCC[C@H]1C(=O)N[C@@H](CCC(=O)O)C(=O)N[C@@H](Cc1ccc(OS(=O)(=O)O)cc1)C(=O)N[C@@H](Cc1ccc(OS(=O)(=O)O)cc1)C(=O)N[C@@H](CC(C)C)C(=O)N[C@@H](CCCCCC(N)=O)C(N)=O [Sulfated form of (X), Suc--Phe--Glu--Pro--Ile--Pro--Glu--Tyr(SO2 H)--Tyr(SO3 H)--Leu--(L)Asu(NH2)NH2] (Suc-FEPIPE[sY][sY]L[Asu](NH2)-NH2) | – | 2
8 | CC[C@H](C)[C@H](NC(=O)[C@@H]1CCCN1C(=O)[C@H](CCC(=O)O)NC(=O)[C@H](Cc1ccccc1)NC(=O)[C@H](CC(=O)O)NC(=O)CNC(=O)CCC(=O)O)C(=O)N1CCC[C@H]1C(=O)N[C@@H](Cc1ccc(OS(=O)(=O)O)cc1)C(=O)N[C@@H](Cc1ccc(OS(=O)(=O)O)cc1)C(=O)N[C@@H](Cc1ccc(OS(=O)(=O)O)cc1)C(=O)N[C@@H](CC(C)C)C(=O)N[C@@H](CCC(N)=O)C(=O)O [Sulfated form of (E), Suc--Gly--Asp--Phe--Glu--Pro--Ile--Pro--Tyr(SO3 H)--Tyr(SO3 H)--Tyr(SO3 H)--Leu--Gln--OH] (Suc-GDFEPIP[sY][sY][sY]LQ-OH) | 44.41 | 0.0807
9 | CCNC(=O)[C@H](CC(C)C)NC(=O)[C@H](Cc1ccc(O)cc1)NC(=O)[C@H](Cc1ccc(O)cc1)NC(=O)[C@H](CCC(=O)O)NC(=O)[C@@H]1CCCN1C(=O)[C@@H](NC(=O)[C@@H]1CCCN1C(=O)[C@H](CCC(=O)O)NC(=O)[C@H](Cc1ccccc1)NC(=O)CCC(=O)O)[C@@H](C)CC [(R)] (Suc-FEPIPEYYL-NHEt) | 0.18 | 27.8
10 | CC[C@H](C)[C@H](NC(=O)[C@@H]1CCCN1C(=O)[C@H](CCC(=O)O)NC(=O)[C@H](Cc1ccccc1)NC(=O)CCC(=O)O)C(=O)N1CCC[C@H]1C(=O)N[C@@H](CCC(=O)O)C(=O)N[C@@H](Cc1ccc(O)cc1)C(=O)N[C@@H](Cc1ccc(O)cc1)C(=O)O [(I)] (Suc-FEPIPEYY-OH) | 0.83 | 17.3
11 | CC[C@H](C)[C@H](NC(=O)[C@@H]1CCCN1C(=O)[C@H](CCC(=O)O)NC(=O)[C@H](Cc1ccccc1)NC(=O)CCC(=O)O)C(=O)N1CCC[C@H]1C(=O)N[C@@H](CCC(=O)O)C(=O)N[C@@H](Cc1ccc(O)cc1)C(=O)N[C@@H](Cc1ccc(O)cc1)C(=O)N[C@@H](CC(C)C)C(=O)NP(=O)(O)O [(Y)] (Suc-FEPIPEYY-X2) | – | 114
12 | CC[C@H](C)[C@H](NC(=O)[C@@H]1CCCN1C(=O)[C@H](CCC(=O)O)NC(=O)[C@H](Cc1ccccc1)NC(=O)[C@H](CC(=O)O)NC(=O)CNC(=O)CCC(=O)O)C(=O)N1CCC[C@H]1C(=O)N[C@@H](CCC(=O)O)C(=O)N[C@@H](Cc1ccc(O)cc1)C(=O)N[C@@H](Cc1ccc(O)cc1)C(=O)N[C@@H](CC(C)C)C(=O)N[C@@H](CCC(N)=O)C(=O)O [(C)] (Suc-GDFEPIPEYYLQ-OH) | 1.76 | 2.39
13 | CC[C@H](C)[C@H](NC(=O)[C@H](CCC(=O)O)NC(=O)[C@H](CCC(=O)O)NC(=O)[C@H](Cc1ccccc1)NC(=O)[C@H](CC(=O)O)NC(=O)CN)C(=O)N1CCC[C@H]1C(=O)N[C@@H](Cc1ccc(O)cc1)C(=O)N[C@@H](Cc1ccc(OS(=O)(=O)O)cc1)C(=O)N[C@@H](Cc1ccc(O)cc1)C(=O)N[C@@H](CC(C)C)C(=O)N[C@@H](CCC(N)=O)C(=O)O (single isomer, unassigned) [Sulfated form of (B) peak 2, Gly--Asp--Phe--Glu--Glu--Ile--Pro--Tyr--Tyr(SO3 H)--Tyr--Leu--Gln] | – | 0.63
14 | CC[C@H](C)[C@H](NC(=O)[C@@H]1CCCN1C(=O)[C@H](CCC(=O)O)NC(=O)CCC(=O)O)C(=O)N1CCC[C@H]1C(=O)N[C@@H](CCC(=O)O)C(=O)N[C@@H](Cc1ccc(OS(=O)(=O)O)cc1)C(=O)N[C@@H](Cc1ccc(OS(=O)(=O)O)cc1)C(=O)N[C@@H](CC(C)C)C(=O)N[C@@H](CCC(N)=O)C(=O)O [Sulfated form of (H), Suc--Glu--Pro--Ile--Pro--Glu--Tyr(SO3 H)--Tyr(SO3 H)--Leu--Gln--OH] (Suc-EPIPE[sY][sY]LQ-OH) | < 0.05 | > 142
15 | CC[C@H](C)[C@H](NC(=O)[C@@H]1CCCN1C(=O)[C@H](CCC(=O)O)NC(=O)[C@H](Cc1ccccc1)NC(=O)CCC(=O)O)C(=O)N1CCC[C@H]1C(=O)N[C@@H](CCC(=O)O)C(=O)N[C@@H](Cc1ccc(O)cc1)C(=O)N[C@@H](Cc1ccc(O)cc1)C(=O)N[C@@H](CC(C)C)C(=O)NCCS(N)(=O)=O [(S)] (Suc-FEPIPEYYL-X1) | – | 72.4
16 | CC[C@H](C)[C@H](NC(=O)[C@@H]1CCCN1C(=O)[C@H](CCC(=O)O)NC(=O)[C@H](Cc1ccccc1)NC(=O)CCC(=O)O)C(=O)N1CCC[C@H]1C(=O)N[C@@H](CCC(=O)O)C(=O)N[C@@H](Cc1ccc(O)cc1)C(=O)N[C@@H](Cc1ccc(O)cc1)C(=O)N[C@@H](CC(C)C)C(=O)N[C@H](CCCCCC(N)=O)C(N)=O [(W)] (Suc-FEPIPEYYL[dAsu](NH2)-NH2) | – | 24.3
17 | CC[C@H](C)[C@H](NC(=O)[C@@H]1CCCN1C(=O)[C@H](CCC(=O)O)NC(=O)[C@H](Cc1ccccc1)NC(=O)CCC(=O)O)C(=O)N1CCC[C@H]1C(=O)N[C@@H](CCC(=O)O)C(=O)N[C@@H](Cc1ccc(OS(=O)(=O)O)cc1)C(=O)N[C@@H](Cc1ccc(OS(=O)(=O)O)cc1)C(=O)N[C@@H](CC(C)C)C(=O)O [Sulfated form of (Q), Suc--Phe--Glu--Pro--Ile--Pro--Glu--Tyr (SO3 H)--Tyr(SO3 H)--Leu--OH] (Suc-FEPIPE[sY][sY]L-OH) | 1.85 | 2.49
18 | CC[C@H](C)[C@H](NC(=O)[C@H](CCC(=O)O)NC(=O)[C@H](CCC(=O)O)NC(=O)[C@H](Cc1ccccc1)NC(=O)[C@H](CC(=O)O)NC(=O)CN)C(=O)N1CCC[C@H]1C(=O)N[C@@H](Cc1ccc(O)cc1)C(=O)N[C@@H](Cc1ccc(OS(=O)(=O)O)cc1)C(=O)N[C@@H](Cc1ccc(OS(=O)(=O)O)cc1)C(=O)N[C@@H](CC(C)C)C(=O)N[C@@H](CCC(N)=O)C(=O)O (single isomer, unassigned) [Sulfated form of (B) peak 1, Gly--Asp--Phe--Glu--Glu--Ile--Pro--Tyr--Tyr(SO3 H)--Tyr(SO3 H)--Leu--Gln] | – | 0.291
19 | GDFEEIPEYYLQ [(A)] | – | 9.78

Reference: patent US5880258A (dated 1999)
